Data reported in patent US8252801B1, “Treatment of schizophrenia and related disorders” (Abbott Laboratories, priority 2009, dated 2012).
Read-outs that look alike come from different tables or passages of the source.

Legend:
[1] = cited from earlier work
Male Sprague Dawley rats = experiment: Catalepsy (bar test), Compound A in combination with risperidone; format: in vivo, rat; settings: Compound A 0.1 or 1.0 mg/kg i.p. 10 min prior to risperidone 2.5 mg/kg i.p.; total catalepsy over 60-240 min; FIG. 3
Experimental: Animals: Male Sprague Dawley rats (CRL: CD (SD), Charles River Laboratories, Omaha, Nebr., USA) weighing 300-325 g were used for the experiment. They were housed under standard conditions in groups of 4 rats on a 12 h light/dark cycle (lights on at 0600 h) with ad libitum access to food and water. Preparation of Compounds: 2-{4′-[(3aR,6aR)-5-Methylhexahydropyrrolo[3,4-b]pyrrol-1(2H)-yl]-1,1′-biphenyl-4-yl}pyridazin-3(2H)-one (Compound A) and risperidone were solubilized as described above, and were administered in solution in a volume of 1.0 ml/kg body weight. Experimental Procedure: Rats were handled and habituated to the testing room before starting. […] The degree of catalepsy was measured by gently placing both forepaws over a metal bar (1.1 cm. diameter suspended 8 cm. above the table top). The time in seconds until the rat took both paws off the bar was recorded, with a maximum cut-off of 300 seconds. […] At least 5 trials were attempted on each rat with 5 seconds used as a low-end cut-off for catalepsy (time scored as zero). For catalepsy times between 5-15 seconds, the highest time of 5 trials was recorded. Alternately, any catalepsy trial time that was greater than 15 seconds (up to 300 seconds) was recorded. Statistics: Data for the 4 times points were summed across the session, and the total catalepsy scores were analyzed using a one-way analysis of variance (ANOVA). […]

Male DBA/2J mice [2] = experiment: Prepulse inhibition (PPI) model, Compound A on a subefficacious dose of risperidone; format: in vivo, mouse; settings: FIG. 2
Experimental: Animals: Male DBA/2J mice (Jackson Labs AX9 facility, Bar Harbor, Me., USA) at age 6-8 weeks old were used. They were housed under standard facility conditions in groups of eight on a 12 h light/dark cycle (lights on at 0600 h) with ad libitum access to food and water. Chemicals: 2-{4′-[(3aR,6aR)-5-Methylhexahydropyrrolo[3,4-b]pyrrol-1(2H)-yl]-1,1′-biphenyl-4-yl}pyridazin-3(2H)-one was prepared at Abbott Laboratories; risperidone (3-[2-[4-(6-fluoro-1,2-benzisoxazol-3-yl)-1-piperidinyl]ethyl]-6,7,8,9-tetrahydro-2-methyl-4H-pyridol[1,2-a]pyrimidin-4-one, MW 410.5) was obtained from ICN Biomedicals Inc. (Aurora, Ohio, USA). […] Experimental Procedure: Startle response and PPI were measured using startle chambers from Hamilton Kinder (Poway, Calif., USA). […] In the startle alone trials, the amount of PPI was calculated as a percentage score for each acoustic prepulse trial type using (typically) the formula: […]. Statistics: Data were analyzed using a one-way ANOVA. All post hoc significance was determined using Dunnett's multiple comparison test (p<0.05 was regarded as significance). […]
Statistics: Data were analyzed using a one-way ANOVA. All post hoc significance was determined using Dunnett's multiple comparison test (p<0.05 was regarded as significance).

Male DBA/2J mice [3] = experiment: Prepulse inhibition (PPI) model, Compound A alone; format: in vivo, mouse; settings: Compound A alone at 0.01, 0.1 and 1.0 mg/kg i.p., 30 min before testing; FIG. 1
Text: Dysfunctions of sensory gating and information processing have been putatively associated with clinical features such as perpetual aberrations, hallucinations and distraction and been considered as potential precursors of sensory overload, cognitive fragmentation and disorganization. Among the physiological measures, one approach has involved the startle reflex with the prepulse inhibition (PPI) paradigm. […] PPI refers to a reduction in the acoustic startle reflex to a loud noise when the loud noise is preceded by a weak auditory stimulus. At short lead intervals, this has the effect of markedly reducing or gating the amplitude of the startle response and increasing its latency. Disruption of PPI occurs with agonists of dopamine and serotonin, and with glutamate/N-methyl D aspartate (NMDA) receptor antagonists, or can be induced by genetic (e.g., DBA2 mouse strain) and experimental manipulations (e.g., rearing rats in isolation, neurotoxic lesions, or other methods). […] (Olivier B., et al., Psychopharmacology (2001) vol. 156:284-290; Ouagazzal A-M., Psychopharmacology (2001) vol. 156:273-283; Simosky J. K., Psychopharmacology (2003) vol. 165:386-396). […]
Animals: Male DBA/2J mice (Jackson Labs AX9 facility, Bar Harbor, Me., USA) at age 6-8 weeks old were used. […] Experimental Procedure: Startle response and PPI were measured using startle chambers from Hamilton Kinder (Poway, Calif., USA). […]

[4] = clinical use, Table 1, hyperprolactinaemia
[5] = clinical use, Table 1, sexual dysfunction

SMILES: O=C(CCCN1CCC(O)(c2ccc(Cl)cc2)CC1)c1ccc(F)cc1 [Haloperidol, 4-(4-chlorophenyl)-1-[4-(4-fluorophenyl)-4-oxobutyl]-4 piperidinyl]
- Dose of Increased Side Effect Risk ([1]; Table 2, risk for EPS): ~3 mg
- Other Dose Related Side Effects [1, 4]: hyper-
- Other Dose Related Side Effects [1, 5]: sexual

SMILES: CN1CCN(C2=Nc3cc(Cl)ccc3Nc3ccccc32)CC1 [Clozapine, 8-chloro-11-(4-methyl-1-piperazinyl)-5H-dibenzo[b,e][1,4]diazepine]
- Dose of Increased Side Effect Risk (low risk for seizures) ([1]; Table 2): <300 mg/day
- Dose of Increased Side Effect Risk (moderate risk for seizures) ([1]; Table 2): 300 to 599 mg/day

SMILES: O=C1Cc2cc(CCN3CCN(c4nsc5ccccc45)CC3)c(Cl)cc2N1 [Ziprasidone, 5-[2-[4-(1,2-benzoisothiazol-3-yl)-1-piperazinyl]ethyl]-6-chloro-1,3-dihydro-2H-indol-2-one]
- Dose of Increased Side Effect Risk (EPS risk) ([1]; Table 2): >80 mg/day
- EPS risk: dose of augmented risk ([1]; clinical use, Table 1): risk >80 mg/kg/day

SMILES: O=C1CCc2ccc(OCCCCN3CCN(c4cccc(Cl)c4Cl)CC3)cc2N1 [Arpiprazole]
- Dose of Increased Side Effect Risk (somnolence), in words ([1]; Table 2): dose dependent
- Other Dose Related Side Effects ([1]; clinical use, Table 1): somnolence

SMILES: CN1C[C@H]2CCN(c3ccc(-c4ccc(-n5ncccc5=O)cc4)cc3)[C@H]2C1 [Compound A, 2-{4′-[(3aR,6aR)-5-methylhexahydropyrrolo[3,4-b]pyrrol-1(2H)-yl]-1,1′-biphenyl-4-yl}pyridazin-3(2H)-one]
- cataleptic behavior of risperidone when administered in combination (Male Sprague Dawley rats): did not significantly alter cataleptic behavior
- efficacy of risperidone (0.1 mg/kg) in PPI in combination with 0.1 mg/kg Compound A (Male DBA/2J mice [2]; 0.1 mg/kg Compound A + 0.1 mg/kg risperidone, comparable to 1.0 mg/kg risperidone): attained maximal efficacy
- efficacy of risperidone (0.1 mg/kg) in PPI in the presence of Compound A (Male DBA/2J mice [2]; Compound A 0.01, 0.1 or 1.0 mg/kg i.p. 35 min, risperidone 0.1 mg/kg 25 min prior to testing): more efficacious
- PPI responding (Male DBA/2J mice [3]): did not significantly alter PPI responding

SMILES: Cc1nc2n(c(=O)c1CCN1CCC(c3noc4cc(F)ccc34)CC1)CCCC2 [Risperidone, 3-[2-[4-(6-fluoro-1,2-benzisoxazol-3-yl)piperidino]ethyl]-2-methyl-6,7,8,9-tetrahydro-4H-pyrido-[1,2-a]pyrimidin-4-one]
- Dose of Increased Side Effect Risk (EPS risk) ([1]; Table 2): ≧6 mg/day
- Other Dose Related Side Effects [1, 4]: hyper-
- Other Dose Related Side Effects [1, 5]: sexual
